Experimental data taken from patent publication US10281476B2, “Methods to identify modulators of RyR calcium channels” (REGENTS OF THE UNIVERSITY OF MINNESOTA, priority 2013, dated 2019).
Where a SMILES comes first, the peptide text is derived from it. The star is where a group is joined. 5FAM = O=C1OC2(c3ccc(O)cc3Oc3cc(O)ccc32)c2ccc(C(=O)*)cc21

Key:
RyR = assay: Pilot FLT-FRET screen of NIH Clinical Collection 1 with D-FKBP and A-CaM near their Kd; format: binding; details: preliminary screen
Description: The optimal concentration of A-CaM may vary from sarcoplasmic reticulum to cell samples, but using a concentration of A-CaM that is at or near its Kd will allow detection of enhanced CaM binding by FRET assays. Compounds that modulate CaM binding are expected to also affect RyR channel function, which can optionally be determined in secondary functional assays. […] A pilot screen of NIH Clinical Collection 1 used donor labeled FKBP and acceptor labeled CaM near their Kd.
Using the method illustrated in FIGS. 3 and 4, a preliminary screen of NIH Clinical Collection 1 (NCC1, 446 compounds) was conducted. The concentrations of A-CaM and D-FKBP were near their Kd. […] In FIG. 36, we represented the effect of compounds on FRET as E(compound)/E(control) (E/E0). Values outside the 3SD threshold (dotted line) are considered hits. Increased FRET (E/E0>1) indicates increased FKBP and/or CaM binding; decreased FRET (E/E0<1) indicates decreased FKBP and/or CaM binding.

RyR2 [1] = biological target: T1, RyR2 (Rattus norvegicus, UniProt B0LPN4); assay: Steady-state F-DPc10 binding at the Z-line of saponin-permeabilized myocytes (confocal); parameters: endogenous in cells; host or cells: saponin-permeabilized adult rat ventricular myocytes; details: in-cell binding isotherm, [Ca2+]i 50 nmol/L
Procedure: Rat ventricular myocytes were isolated and permeabilized as previously described (Li et al., Circ Res, 2002; 90:309-316). All procedures were performed according to the Guiding Principles in the Care and Use of the Animals and were approved by the Council of American Physiological Society. DPc10, FKBP12.6, and CaM were labeled at specific sites with small fluorescence probes, similar to our previous studies (Guo et al., Circ Res, 2010; 106:1743-1752; Cornea et al., PNAS USA, 2009; 106:6128-6133; Guo et al., Biophys J, 2011; 101:2170-2177).
Confocal images was measured using a Biorad RADIANCE2100™ laser scanning confocal microscope equipped with an Argon ion laser, Green HeNe laser and with a Nikon Fluo x40 oil lens. FRET (fluorescence resonance energy transfer) experiments between CaM and DPc10, and FKBP12.6 and DPc10 were performed using an Olympus FV1000 confocal microscope. All experiments were done at room temperature.
Myocytes were exposed to […] F-DPc10, with intracellular [Ca^2+] ([Ca^2+]i) set at 50 nmol/L. F-DPc10 fluorescence is highest at the Z-lines, where RyR2 is concentrated, forming a typical cross-striated pattern. The difference between fluorescence intensity at the Z-line (Fz) and M-line (FM) is taken to represent [F-DPc10] specifically bound at the myocyte Z-line. We calibrated the bound [F-DPc10] in permeabilized myocytes using the linear relationship between F-DPc10 fluorescence and bath [F-DPc10] (FIG. 7B). […] To further test whether this Z-line-associated F-DPc10 represents RyR2-bound F-DPc10, we measured FRET between FKBP12.6 (known to specifically bind to RyR2 with subnanomolar affinity) (Guo et al., Circ Res, 2010; 106:1743-1752) and F-DPc10. […] Donor (AF568-FKBP12.6) fluorescence at the Z-line was quenched by HF647-DPc10, but the M-line signal was not (FIG. 9B). […]
Target sequence in this assay (B0LPN4 whole entry): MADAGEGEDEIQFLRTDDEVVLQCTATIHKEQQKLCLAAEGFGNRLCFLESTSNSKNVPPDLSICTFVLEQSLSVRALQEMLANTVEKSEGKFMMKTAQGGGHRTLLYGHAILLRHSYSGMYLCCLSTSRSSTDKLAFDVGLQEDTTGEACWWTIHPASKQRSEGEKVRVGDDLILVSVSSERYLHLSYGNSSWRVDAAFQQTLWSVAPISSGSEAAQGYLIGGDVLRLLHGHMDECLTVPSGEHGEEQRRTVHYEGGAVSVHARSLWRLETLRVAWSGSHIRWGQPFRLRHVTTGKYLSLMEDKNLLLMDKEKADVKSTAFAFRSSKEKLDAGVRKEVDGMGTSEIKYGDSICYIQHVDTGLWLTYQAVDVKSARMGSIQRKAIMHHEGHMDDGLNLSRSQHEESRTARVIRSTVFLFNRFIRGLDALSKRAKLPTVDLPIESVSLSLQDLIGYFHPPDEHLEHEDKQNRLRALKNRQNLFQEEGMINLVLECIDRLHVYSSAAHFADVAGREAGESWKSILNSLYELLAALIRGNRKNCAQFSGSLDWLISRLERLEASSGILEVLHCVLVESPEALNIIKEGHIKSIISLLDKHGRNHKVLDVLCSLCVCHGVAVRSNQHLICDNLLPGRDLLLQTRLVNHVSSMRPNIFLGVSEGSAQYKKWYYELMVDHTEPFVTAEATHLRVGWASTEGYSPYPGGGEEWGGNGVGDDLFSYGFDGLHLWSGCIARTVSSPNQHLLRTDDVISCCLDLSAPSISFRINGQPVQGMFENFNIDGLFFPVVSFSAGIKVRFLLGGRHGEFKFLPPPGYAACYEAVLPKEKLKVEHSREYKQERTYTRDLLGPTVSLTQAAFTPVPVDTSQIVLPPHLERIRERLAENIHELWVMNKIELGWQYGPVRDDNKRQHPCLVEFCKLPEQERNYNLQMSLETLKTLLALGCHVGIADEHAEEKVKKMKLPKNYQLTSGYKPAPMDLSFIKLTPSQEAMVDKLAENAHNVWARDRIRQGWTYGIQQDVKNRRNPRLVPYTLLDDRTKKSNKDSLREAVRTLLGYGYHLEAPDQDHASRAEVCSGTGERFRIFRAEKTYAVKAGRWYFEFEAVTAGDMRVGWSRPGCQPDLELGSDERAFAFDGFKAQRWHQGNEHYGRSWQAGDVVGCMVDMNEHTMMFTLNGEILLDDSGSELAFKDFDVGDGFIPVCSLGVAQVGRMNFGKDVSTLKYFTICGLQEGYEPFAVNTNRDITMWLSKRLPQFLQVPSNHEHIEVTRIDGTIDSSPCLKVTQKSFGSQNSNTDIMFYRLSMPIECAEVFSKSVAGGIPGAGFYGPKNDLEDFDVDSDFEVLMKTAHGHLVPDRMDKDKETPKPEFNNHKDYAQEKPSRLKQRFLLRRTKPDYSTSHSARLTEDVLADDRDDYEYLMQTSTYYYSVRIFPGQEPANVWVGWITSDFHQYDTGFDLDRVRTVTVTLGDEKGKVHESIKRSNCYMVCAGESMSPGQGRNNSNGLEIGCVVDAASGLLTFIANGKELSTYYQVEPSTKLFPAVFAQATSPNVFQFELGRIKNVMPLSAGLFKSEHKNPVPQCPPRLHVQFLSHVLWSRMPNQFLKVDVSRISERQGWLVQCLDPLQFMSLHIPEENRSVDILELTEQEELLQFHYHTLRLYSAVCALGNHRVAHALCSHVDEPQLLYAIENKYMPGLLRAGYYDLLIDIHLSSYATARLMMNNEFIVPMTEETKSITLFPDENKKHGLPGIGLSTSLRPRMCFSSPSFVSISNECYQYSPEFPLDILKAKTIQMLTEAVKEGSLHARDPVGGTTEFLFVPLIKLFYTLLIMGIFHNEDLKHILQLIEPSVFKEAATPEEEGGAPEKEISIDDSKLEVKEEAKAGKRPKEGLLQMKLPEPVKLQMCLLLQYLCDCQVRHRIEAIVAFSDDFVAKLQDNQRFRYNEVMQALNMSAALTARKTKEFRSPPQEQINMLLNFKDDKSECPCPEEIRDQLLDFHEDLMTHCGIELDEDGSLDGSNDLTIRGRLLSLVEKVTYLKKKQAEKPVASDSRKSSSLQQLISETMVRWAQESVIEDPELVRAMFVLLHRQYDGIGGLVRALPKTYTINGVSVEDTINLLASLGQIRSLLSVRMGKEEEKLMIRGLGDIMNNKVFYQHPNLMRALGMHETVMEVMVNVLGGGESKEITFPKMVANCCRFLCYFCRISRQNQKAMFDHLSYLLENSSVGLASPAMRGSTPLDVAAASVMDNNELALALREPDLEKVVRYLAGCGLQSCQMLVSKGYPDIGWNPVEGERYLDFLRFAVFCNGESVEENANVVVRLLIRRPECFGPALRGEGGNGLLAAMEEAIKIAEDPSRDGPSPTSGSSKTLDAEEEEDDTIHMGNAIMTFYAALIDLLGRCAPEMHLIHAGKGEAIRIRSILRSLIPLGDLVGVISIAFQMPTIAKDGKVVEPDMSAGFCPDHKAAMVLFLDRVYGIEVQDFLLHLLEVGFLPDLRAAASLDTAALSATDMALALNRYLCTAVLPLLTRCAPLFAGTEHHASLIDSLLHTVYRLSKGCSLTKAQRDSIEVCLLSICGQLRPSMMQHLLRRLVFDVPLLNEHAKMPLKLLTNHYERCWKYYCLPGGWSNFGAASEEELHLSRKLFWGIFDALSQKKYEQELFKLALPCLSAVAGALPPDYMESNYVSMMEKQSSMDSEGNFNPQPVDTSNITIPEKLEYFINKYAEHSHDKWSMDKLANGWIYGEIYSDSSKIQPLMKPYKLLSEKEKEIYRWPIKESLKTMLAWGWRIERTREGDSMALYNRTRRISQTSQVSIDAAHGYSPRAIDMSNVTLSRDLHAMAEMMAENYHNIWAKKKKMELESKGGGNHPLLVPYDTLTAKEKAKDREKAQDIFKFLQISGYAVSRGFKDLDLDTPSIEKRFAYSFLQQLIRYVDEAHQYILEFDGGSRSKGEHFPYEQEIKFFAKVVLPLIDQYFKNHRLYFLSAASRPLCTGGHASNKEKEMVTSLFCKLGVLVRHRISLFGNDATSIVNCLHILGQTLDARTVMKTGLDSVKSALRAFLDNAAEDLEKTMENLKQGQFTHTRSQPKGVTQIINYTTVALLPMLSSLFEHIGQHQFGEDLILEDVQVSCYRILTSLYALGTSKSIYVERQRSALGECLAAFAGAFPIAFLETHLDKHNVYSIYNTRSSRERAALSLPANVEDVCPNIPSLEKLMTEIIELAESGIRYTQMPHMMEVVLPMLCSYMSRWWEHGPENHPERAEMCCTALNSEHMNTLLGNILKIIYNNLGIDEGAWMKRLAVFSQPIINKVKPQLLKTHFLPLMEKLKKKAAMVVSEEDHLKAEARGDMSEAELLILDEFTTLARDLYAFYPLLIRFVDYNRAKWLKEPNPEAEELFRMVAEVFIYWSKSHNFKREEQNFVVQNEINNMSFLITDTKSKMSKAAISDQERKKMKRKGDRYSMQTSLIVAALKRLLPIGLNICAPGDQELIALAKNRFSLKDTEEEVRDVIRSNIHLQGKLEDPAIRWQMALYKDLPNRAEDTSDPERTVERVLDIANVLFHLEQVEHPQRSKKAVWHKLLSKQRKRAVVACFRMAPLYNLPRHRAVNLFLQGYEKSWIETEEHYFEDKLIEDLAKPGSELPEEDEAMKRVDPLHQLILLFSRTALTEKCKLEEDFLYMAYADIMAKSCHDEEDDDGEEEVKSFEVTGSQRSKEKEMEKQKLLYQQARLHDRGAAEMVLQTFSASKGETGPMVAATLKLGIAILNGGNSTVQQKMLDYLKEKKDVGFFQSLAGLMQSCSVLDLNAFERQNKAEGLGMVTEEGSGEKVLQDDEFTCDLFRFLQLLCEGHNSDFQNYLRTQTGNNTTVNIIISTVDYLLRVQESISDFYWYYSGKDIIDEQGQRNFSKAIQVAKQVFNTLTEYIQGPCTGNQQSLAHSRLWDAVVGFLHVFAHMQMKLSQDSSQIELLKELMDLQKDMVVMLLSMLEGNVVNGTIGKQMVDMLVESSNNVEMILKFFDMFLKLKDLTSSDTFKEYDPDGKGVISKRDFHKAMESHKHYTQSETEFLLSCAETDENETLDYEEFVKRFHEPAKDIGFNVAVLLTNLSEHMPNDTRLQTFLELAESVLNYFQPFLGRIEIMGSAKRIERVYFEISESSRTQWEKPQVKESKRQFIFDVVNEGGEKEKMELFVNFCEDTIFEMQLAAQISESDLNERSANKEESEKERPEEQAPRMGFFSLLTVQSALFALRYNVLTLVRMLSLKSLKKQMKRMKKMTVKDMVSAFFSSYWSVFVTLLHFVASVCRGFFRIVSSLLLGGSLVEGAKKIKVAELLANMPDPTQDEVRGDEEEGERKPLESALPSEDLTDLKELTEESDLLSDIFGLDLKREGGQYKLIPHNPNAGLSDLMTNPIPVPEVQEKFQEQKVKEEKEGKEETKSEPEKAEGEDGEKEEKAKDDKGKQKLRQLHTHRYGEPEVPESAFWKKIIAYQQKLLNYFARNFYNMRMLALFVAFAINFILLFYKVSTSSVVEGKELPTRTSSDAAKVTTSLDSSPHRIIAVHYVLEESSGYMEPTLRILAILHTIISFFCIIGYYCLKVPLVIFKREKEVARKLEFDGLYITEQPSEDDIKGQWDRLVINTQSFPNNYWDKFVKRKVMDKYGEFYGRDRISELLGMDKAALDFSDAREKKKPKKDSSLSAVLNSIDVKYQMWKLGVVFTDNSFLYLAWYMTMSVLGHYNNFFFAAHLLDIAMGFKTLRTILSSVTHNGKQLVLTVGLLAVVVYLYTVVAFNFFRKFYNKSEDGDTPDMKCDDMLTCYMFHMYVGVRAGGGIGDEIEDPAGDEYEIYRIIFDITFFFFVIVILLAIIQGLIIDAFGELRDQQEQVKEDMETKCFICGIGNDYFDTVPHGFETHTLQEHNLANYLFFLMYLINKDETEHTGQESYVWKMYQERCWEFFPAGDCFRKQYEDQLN

RyR2 [2] = biological target: T1, RyR2; assay: F-DPc10 wash-in and washout kinetics at the myocyte Z-line; format: binding; parameters: endogenous in cells; host or cells: saponin-permeabilized adult rat ventricular myocytes
Procedure: To characterize DPc10-binding kinetics at Z-lines, we performed F-DPc10 wash-in (500 nmol/L) and washout experiments in permeabilized myocytes (FIG. 10A). Association (τwash-in=79.0±3.2 minutes) and dissociation (τwashout=149.8±4.4 minutes) were very slow compared with similar FKBP12.6 measurements (Guo et al., Circ Res, 2010; 106:1743-1752). From the wash-in/washout measurements, we calculated the association and dissociation rates constants, kon and koff, respectively, according to the following equation: kwash-in=[F-DPc10]kon+koff where kwashout≈koff and k=1/τ (s^−1). Accordingly, kon=202±20 (L mol^−1 s^−1) and koff=0.11±0.01 (10^−3 s^−1). […] We repeated this kinetic analysis using FRET between FKBP12.6 and DPc10, thus assessing the RyR2-specific DPc10 binding (FIG. 11A AND 11B). […] Based on these kinetic and affinity analyses, we infer that most of the Z-line-specific DPc10 binding is to RyR2. This is also consistent with Bmax, which would imply ≈1 DPc10 per RyR2 monomer.
We were intrigued by the slow kwash-in and conducted measurements to further understand the basis of this slow association. We tested the hypothesis that at resting [Ca^2+]i, DPc10 access to its RyR2 binding site is sterically hindered. If the N-terminal and central domains are tightly zipped to each other, then this interaction may occlude the DPc10-binding site on the RyR2, thus limiting the kon for DPc10. Alternatively, a limiting factor may be the rate at which DPc10 adopts a conformation that can bind to RyR2. To discern between these mechanisms, we determined the effect of [F-DPc10] on τwash-in. If the small fraction of DPc10 in the right conformation limits binding rate, then τwash-in should be faster at higher [F-DPc10], according to Equation. […] Instead, a 10-fold increase in [F-DPc10] had no significant effect on the τwash-in, although it did increase Bmax (FIG. 10B). The same was seen when using FKBP12.6-DPc10 FRET to assess τwash-in with 0.5 vs 5 μmol/L HF647-DPc10 (FIG. 12A AND 12B).
In our working model, under resting conditions, the RyR2 closed state may be stabilized by the interaction between the N-terminal and central domain in the zipped state. We hypothesized that conditions that promote RyR2 opening might enhance the rate of unzipping and accelerate τwash-in for F-DPc10. To test this, we first monitored F-DPc10 wash-in at elevated Ca^2+ (500 nmol/L). However, the 13% faster mean τwash-in was not significant (FIG. 13A). […] Thus, we preincubated myocytes with ryanodine (100 μmol/L) plus caffeine ([…]), which are known to favor long RyR2 openings and were reported to cause RyR2 domain unzipping in HEK293 cells (Liu et al., J Cell Sci, 2010; 123: 1775-1784). Ryanodine+caffeine produced a 21% faster τwash-in (P=0.002; FIG. 13B). However, the most significant effect was seen after presaturating RyR2 with NF-DPc10 (and then NF-DPc10 washout with F-DPc10 present; FIG. 13A). […] Assuming that koff of NF-DPc10 is the same as for F-DPc10 and using Equation, the kon is increased by 3.2-fold by unzipping as a result of prebinding of NF-DPc10 to the RyR2. Our working hypothesis is that the RyR2 open state may increase the probability of an RyR2 shifting to the unzipped state and may allow faster F-DPc10 wash-in. It also seems that the RyR2 open state (favored by caffeine-ryanodine) differs from the unzipped state (bound with DPc10).
Both FKBP12.6 and CaM bind to the RyR2 and can reduce channel opening, which might alter DPc10 binding. […] Neither CaM nor FKBP12.6 pretreatment altered M-line F-DPc10 fluorescence (FIG. 15). […] We infer that CaM stabilizes the domain interaction between N-terminal and central domains in the zipped state and thereby may reduce DPc10 access to its binding site. To test for direct CaM-DPc10 interaction, we performed control FRET measurements between donor-labeled CaM and acceptor-labeled DPc10 in solution in the absence of RyR. The maximal FRET efficiency (<1%) ruled out direct CaM-DPc10 interaction. […]
Target sequence in this assay (B0LPN4 whole entry): as above

RyR2 [3] = biological target: T1, RyR2; assay: HF647-DPc10 wash-in kinetics by FRET from F-FKBP (donor quench) in permeabilized myocytes; format: binding; parameters: These fluorescent proteins were added to saponin-permeabilized myocytes with or without pre-equilibration with saturating DPc10 concentration; endogenous in cells; host or cells: saponin-permeabilized rat ventricular myocytes; details: myocytes
Procedure: The FRET pair we used in this consisted of ALEXA FLUOR™ 488 (donor) covalently attached to FKBP12.6 (F-FKBP) and HiLyte Fluor™647 (acceptor) covalently attached to DPc10 (F-DPc10).^8 To detect F-DPc10 specifically bound to RyR2, we measured donor fluorescence intensities through a 500-530 nm bandpass filter before and after equilibration with acceptor (donor quenching method). The FRET efficiency (E) was calculated according to: E=1-FDA/FD, Where FD and FDA are the fluorescence intensities of the donor-only and donor-plus-acceptor samples, respectively (Oda et al., Circ Res. 2013;112:487-497). Statistics
Next we tested whether RyR2 oxidation would increase HF647-DPc10 access. Here, we used FRET between F-FKBP as a donor and HF647-DPc10 as an acceptor, to detect DPc10 that specifically binds at RyR2 (Oda et al., Circ Res. 2013; 112:487-497).
Target sequence in this assay (B0LPN4 whole entry): as above
Target sequence in this assay (P68106 with tags, fused parts or gaps T15C/C23A/C77I partner): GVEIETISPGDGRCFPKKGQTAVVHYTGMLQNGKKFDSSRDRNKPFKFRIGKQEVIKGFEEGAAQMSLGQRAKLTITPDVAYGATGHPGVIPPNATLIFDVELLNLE

[4] = calculated from wash-in/washout

## Nc1nc(Cl)nc2c1ncn2[C@H]1C[C@H](O)[C@@H](CO)O1 [Cladribine]
RyR
  effect on FRET, E(compound)/E(control); hit = outside the 3SD threshold: hits

## CC[C@H](C)[C@H](NC(=O)CNC(=O)[C@H](Cc1ccc(O)cc1)NC(=O)[C@@H](NC(=O)[C@H](CCCNC(=N)N)NC(=O)[C@H](CC(=O)O)NC(=O)[C@H](CC(C)C)NC(=O)[C@H](Cc1ccccc1)NC(=O)[C@H](CC(C)C)NC(=O)[C@@H](NC(=O)[C@H](CCSC)NC(=O)[C@H](C)NC(=O)[C@H](C)NC(=O)[C@H](CCCCN)NC(=O)[C@H](Cc1c[nH]cn1)NC(=O)[C@H](CC(=O)O)NC(=O)[C@@H]1CCCN1C(=O)[C@H](CS)NC(=O)[C@H](Cc1ccccc1)NC(=O)CNC(=O)c1ccc2c(c1)C(=O)OC21c2ccc(O)cc2Oc2cc(O)ccc21)C(C)C)C(C)C)C(=O)N[C@@H](CCC(=O)O)C(=O)N[C@H](C(=O)N[C@@H](CCC(N)=O)C(=O)N[C@@H](CC(=O)O)C(=O)N[C@@H](Cc1ccccc1)C(=O)N[C@@H](CC(C)C)C(=O)N[C@@H](CC(C)C)C(=O)N[C@@H](Cc1c[nH]cn1)C(=O)N[C@@H](CC(C)C)C(=O)N[C@@H](CC(C)C)C(=O)N[C@@H](CCC(=O)O)C(=O)N[C@H](C(=O)NCC(=O)N[C@@H](Cc1ccccc1)C(=O)N[C@@H](CC(C)C)C(=O)N1CCC[C@H]1C(=O)O)C(C)C)C(C)C [F-DPc10] (5FAM-GFCPDHKAAMVLFLDRVYGIEVQDFLLHLLEVGFLP-OH)
RyR2 [1]
  maximal binding (Bmax), concentration of F-DPc10-binding sites: 1.59±0.03 μmon
RyR2 [2]; F-DPc10 500 nmol/L
  association τwash-in: 79.0 ± 3.2 min
  dissociation τwashout: 149.8 ± 4.4 min
RyR2 [2]; [4]
  koff: 0.00011 ± 1e-05 s⁻¹
  kon: 202 ± 20 M⁻¹ s⁻¹
RyR2 [2]; similar conditions
  kon slower than that measured for FKBP12.6: ≈ 1800 fold
RyR2 [3]
  τwash-in in controls: ~80 min

## O=C1N(c2ccccc2)c2ccccc2C1(Cc1ccncc1)Cc1ccncc1 [Linopirdine]
RyR
  effect on FRET, E(compound)/E(control); hit = outside the 3SD threshold: hits

## NC(=O)c1cccnc1 [Nicotinamide]
RyR
  effect on FRET, E(compound)/E(control); hit = outside the 3SD threshold: hits

## C=CC[C@@H]1/C=C(\C)C[C@H](C)C[C@H](OC)[C@H]2O[C@@](O)(C(=O)C(=O)N3CCCC[C@H]3C(=O)O[C@H](/C(C)=C/[C@@H]3CC[C@@H](O)[C@H](OC)C3)[C@H](C)[C@@H](O)CC1=O)[C@H](C)C[C@@H]2OC [Tacrolimus]
RyR
  effect on FRET, E(compound)/E(control); hit = outside the 3SD threshold: among the hits
RyR; listed as FK506
  effect on FRET, E(compound)/E(control); hit = outside the 3SD threshold: reducing FRET
